The numbers were not newly measured in PMC6222696, “Inhibition of UGT2B7 Enzyme Activity in Human and Rat Liver Microsomes by Herbal Constituents” (Molecules : A Journal of Synthetic Chemistry and Natural …, 2018), which cites them from elsewhere.

In the data set the test system is UGT nonspecific. Set-up: method as in PMID 28479734. The settings on record: system not given; cited from earlier work.

For the compound `COc1cc(C=O)ccc1O` [Vanillin], the “UGT nonspecific, in vitro study” value is on record as “UGT nonspecific ↓”.
